From ChEMBL document CHEMBL1201862, “PubChem BioAssay data set” (2004)
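Interpolation was linear, between the two tested concentrations surrounding the appropriate level; five concentrations were tested over 48 hours in 96-well plates. The concentration for 50% growth inhibition is given as GI50.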 The source made the active and inactive calls. No stated cut-off is given here; in the data, active = GI50 up to about 1.1 µM and inactive = higher.

Tests used:
Assay in all cases: inhibition of tumour cell growth, NCI panel, 48 h
[1] = tested on: 786-0
[2] = tested on: A498
[3] = tested on: A549
[4] = tested on: ACHN
[5] = tested on: BT-549
[6] = tested on: CAKI-1
[7] = tested on: CCRF-CEM
[8] = tested on: COLO 205
[9] = tested on: DU-145
[10] = tested on: EKVX
[11] = tested on: HCC 2998
[12] = tested on: HCT-116
[13] = tested on: HCT-15
[14] = tested on: HL-60
[15] = tested on: HOP-62
[16] = tested on: HOP-92
[17] = tested on: HT-29
[18] = tested on: Hs-578T
[19] = tested on: IGROV-1
[20] = tested on: K562
[21] = tested on: KM12
[22] = tested on: LOX IMVI
[23] = tested on: M14
[24] = tested on: MCF7
[25] = tested on: MDA-MB-231
[26] = tested on: MDA-MB-435
[27] = tested on: MDA-N
[28] = tested on: MOLT-4
[29] = tested on: Malme-3M
[30] = tested on: NCI-H226
[31] = tested on: NCI-H23
[32] = tested on: NCI-H460
[33] = tested on: NCI-H522
[34] = tested on: NCI/ADR-RES
[35] = tested on: OVCAR-3
[36] = tested on: OVCAR-4
[37] = tested on: OVCAR-5
[38] = tested on: OVCAR-8
[39] = tested on: PC-3
[40] = tested on: RPMI-8226
[41] = tested on: RXF 393
[42] = tested on: SF-268
[43] = tested on: SF-295
[44] = tested on: SF-539
[45] = tested on: SK-MEL-28
[46] = tested on: SK-MEL-2
[47] = tested on: SK-MEL-5
[48] = tested on: SK-OV-3
[49] = tested on: SN12C
[50] = tested on: SNB-19
[51] = tested on: SNB-75
[52] = tested on: SR
[53] = tested on: SW-620
[54] = tested on: T47D
[55] = tested on: TK-10
[56] = tested on: U-251
[57] = tested on: UACC-257
[58] = tested on: UACC-62
[59] = tested on: UO-31
[60] = tested on: DMS-114
[61] = tested on: KM-20L2

Measured: GI50

C=C1C[C@@H](O)[C@@H](Br)C(C)(C)[C@]12CCC(C)(Cl)C(Br)C2 (stereo partly drawn)
35.1 µM: [13]
active: [21] 0.929 µM | [37] 0.736 µM | [39] 0.431 µM
inactive: [1] 25.9 µM | [2] > 46.9 µM | [3] 26.2 µM | [4] 32.8 µM | [5] 35.5 µM | [6] 34.8 µM | [7] 41.6 µM | [8] 4.86 µM | [9] 62.4 µM | [10] 4.35 µM | [11] 13.2 µM | [12] 32.3 µM | [14] 25.6 µM | [15] 19.1 µM | [16] 24.2 µM | [17] 29 µM | [18] 27.4 µM | [19] 7.93 µM | [20] 53.5 µM | [22] 21.3 µM | [23] 34 µM | [24] 25.1 µM | [25] 40.7 µM | [26] 23.9 µM | [27] 25.5 µM | [28] 36.4 µM | [29] 22 µM | [30] 20.9 µM | [31] 21.1 µM | [32] 27.3 µM | [33] 17.5 µM | [34] 21.4 µM | [35] 15.7 µM | [36] 21.9 µM | [38] 34.7 µM | [40] 34 µM | [41] 28.6 µM | [42] 32 µM | [43] 30.6 µM | [44] 16.8 µM | [45] 55.7 µM | [46] 15.1 µM | [47] 7.71 µM | [48] 57.3 µM | [49] 18.8 µM | [50] > 31.6 µM | [51] 18.9 µM | [52] 40.8 µM | [53] 39.9 µM | [54] 19.5 µM | [55] 1.58 µM | [56] 24.4 µM | [57] 21.6 µM | [58] 40.5 µM | [59] 59 µM

CC1=CC(=O)c2[nH]c3ccccc3c2C1=O [MURRAYAQUINONE A]
inactive: [3] > 25 µM | [60] 4.26 µM | [15] > 25 µM | [61] > 25 µM | [35] 4.53 µM | [36] 4.16 µM | [37] 5.4 µM | [38] 4.02 µM | [40] 5.96 µM | [50] > 25 µM

S=C1N=C(Cl)/C(=C\c2ccccc2)N1
> 100 µM: [13]
inactive: [1] > 100 µM | [2] > 100 µM | [3] > 83.6 µM | [4] > 100 µM | [5] > 100 µM | [6] > 100 µM | [7] > 31.6 µM | [8] > 100 µM | [9] > 100 µM | [10] > 100 µM | [12] > 100 µM | [14] > 100 µM | [15] > 100 µM | [16] > 100 µM | [17] > 100 µM | [18] > 100 µM | [19] > 100 µM | [20] > 100 µM | [21] > 87.7 µM | [22] > 100 µM | [23] > 100 µM | [24] > 100 µM | [25] > 100 µM | [26] > 100 µM | [27] > 100 µM | [28] > 100 µM | [29] > 83.6 µM | [30] > 100 µM | [31] > 100 µM | [32] > 100 µM | [33] > 100 µM | [34] > 100 µM | [35] > 100 µM | [36] > 100 µM | [37] > 100 µM | [38] > 100 µM | [39] > 100 µM | [40] > 100 µM | [41] > 100 µM | [42] > 100 µM | [43] > 100 µM | [44] > 100 µM | [45] > 100 µM | [46] > 100 µM | [47] > 100 µM | [48] > 100 µM | [49] > 100 µM | [50] > 100 µM | [51] > 100 µM | [52] > 100 µM | [53] > 100 µM | [54] > 100 µM | [55] > 100 µM | [56] > 100 µM | [57] > 100 µM | [58] > 100 µM | [59] > 100 µM
active: [11] 1.06 µM
